Experimental data published in ChEMBL document CHEMBL1201862, “PubChem BioAssay data set” (2004).
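Compound exposure: 48 hours, 5 concentrations, 96-well plates. GI50 is the concentration that inhibits growth by half.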 The source made the active and inactive calls. Cut-off read from the data, not from the text of the source: active = GI50 up to about 1.1 µM and inactive = higher.

Tests used:
Assay in all cases: NCI anticancer screen, dose series, 48 h
DU-145 = test system: DU-145
HL-60 = test system: HL-60
SW-620 = test system: SW-620
786-0 = test system: 786-0
SK-MEL-2 = test system: SK-MEL-2
NCI-H23 = test system: NCI-H23
OVCAR-8 = test system: OVCAR-8
SR = test system: SR
KM12 = test system: KM12
MOLT-4 = test system: MOLT-4
UO-31 = test system: UO-31
BT-549 = test system: BT-549
A498 = test system: A498
SNB-19 = test system: SNB-19
SN12C = test system: SN12C
T47D = test system: T47D
NCI-H460 = test system: NCI-H460
RXF 393 = test system: RXF 393
SF-295 = test system: SF-295
SK-MEL-5 = test system: SK-MEL-5

| Compound | GI50 (DU-145) | GI50 (HL-60) | GI50 (SW-620) | GI50 (786-0) | GI50 (SK-MEL-2) | GI50 (NCI-H23) | GI50 (OVCAR-8) | GI50 (SR) | GI50 (KM12) | GI50 (MOLT-4) | GI50 (UO-31) | GI50 (BT-549) | GI50 (A498) | GI50 (SNB-19) | GI50 (SN12C) | GI50 (T47D) | GI50 (NCI-H460) | GI50 (RXF 393) | GI50 (SF-295) | GI50 (SK-MEL-5) |
| --- | --- | --- | --- | --- | --- | --- | --- | --- | --- | --- | --- | --- | --- | --- | --- | --- | --- | --- | --- | --- |
| O=C(O)c1ccccc1NCn1c(=S)sc2ccccc21 | 37.2 µM (inactive) | 19.6 µM (inactive) | 36 µM (inactive) | 54.3 µM (inactive) | > 100 µM (inactive) | 28.2 µM (inactive) | > 100 µM (inactive) | 29.6 µM (inactive) | 63 µM (inactive) | 35.1 µM (inactive) | 51.2 µM (inactive) | > 100 µM (inactive) | > 100 µM (inactive) | 76.7 µM (inactive) | 35.1 µM (inactive) | 37.1 µM (inactive) | 21.9 µM (inactive) | > 100 µM (inactive) | 45.6 µM (inactive) | – |
| CC(C)(C)c1ccc(O)c(CN(Cc2cc(C(C)(C)C)ccc2O)C2CCCCC2)c1 | 19.5 µM (inactive) | – | 18.3 µM (inactive) | 16 µM (inactive) | 18.5 µM (inactive) | 20.4 µM (inactive) | 15.9 µM (inactive) | 18.5 µM (inactive) | 20.5 µM (inactive) | 17.7 µM (inactive) | 23.2 µM (inactive) | 19.8 µM (inactive) | 17.5 µM (inactive) | 18 µM (inactive) | 16.4 µM (inactive) | 16.4 µM (inactive) | 16.7 µM (inactive) | 17.4 µM (inactive) | 17.7 µM (inactive) | 15.8 µM (inactive) |
| COc1ccc(Nc2nc3ccccc3nc2C(=O)O)cc1OC | > 100 µM (inactive) | 88.1 µM (inactive) | > 100 µM (inactive) | 73.6 µM (inactive) | – | 80.4 µM (inactive) | > 100 µM (inactive) | > 100 µM (inactive) | 66.8 µM (inactive) | 65 µM (inactive) | 29.6 µM (inactive) | 52.7 µM (inactive) | 21.3 µM (inactive) | 73.1 µM (inactive) | 48.1 µM (inactive) | 33.8 µM (inactive) | 45.8 µM (inactive) | 74.1 µM (inactive) | 33.2 µM (inactive) | 28.5 µM (inactive) |
| N=C(N)SCc1nc(-c2ccc(Cl)cc2)no1 | 15.7 µM (inactive) | 13.8 µM (inactive) | 12.2 µM (inactive) | 14.3 µM (inactive) | 13.2 µM (inactive) | 34.4 µM (inactive) | 30.1 µM (inactive) | 4.48 µM (inactive) | 20.8 µM (inactive) | 3.56 µM (inactive) | – | 23.2 µM (inactive) | 16.8 µM (inactive) | 38.2 µM (inactive) | 17.8 µM (inactive) | 11.3 µM (inactive) | 23.8 µM (inactive) | 12.1 µM (inactive) | 17.9 µM (inactive) | 31.1 µM (inactive) |
| CCC1OC(=O)CC(O)C(C)C(OC2OC(C)C(O)C(N(C)C)C2O)C(CC=O)CC(C)C(=O)/C=C/C2(C)OC2C1C (stereo not given) | 20.7 µM (inactive) | 23.6 µM (inactive) | 20 µM (inactive) | 24.1 µM (inactive) | 48.3 µM (inactive) | 26.4 µM (inactive) | 3.19 µM (inactive) | 13.5 µM (inactive) | 15.3 µM (inactive) | 14.1 µM (inactive) | – | 37.3 µM (inactive) | 36.9 µM (inactive) | 44.4 µM (inactive) | 15.1 µM (inactive) | 17.2 µM (inactive) | 32.4 µM (inactive) | – | 67.9 µM (inactive) | 7.03 µM (inactive) |
| CN(N)c1cc(=O)[nH]c(=O)[nH]1 | > 100 µM (inactive) | 43.4 µM (inactive) | > 100 µM (inactive) | > 100 µM (inactive) | – | > 100 µM (inactive) | > 100 µM (inactive) | > 100 µM (inactive) | > 100 µM (inactive) | > 100 µM (inactive) | – | 0.03 µM (active) | > 100 µM (inactive) | > 100 µM (inactive) | > 100 µM (inactive) | > 100 µM (inactive) | > 100 µM (inactive) | – | > 100 µM (inactive) | > 100 µM (inactive) |
| CCCCCCCCCCCCN1[C@H]2CCC[C@H]2C(O)[C@@H]2CCC[C@@H]21 (stereo not given in full) | > 100 µM (inactive) | 33.8 µM (inactive) | > 100 µM (inactive) | > 100 µM (inactive) | > 100 µM (inactive) | 42.6 µM (inactive) | > 100 µM (inactive) | 41 µM (inactive) | 68.2 µM (inactive) | > 100 µM (inactive) | – | 42.3 µM (inactive) | > 100 µM (inactive) | > 100 µM (inactive) | 52.8 µM (inactive) | 29.2 µM (inactive) | > 100 µM (inactive) | > 100 µM (inactive) | – | 58.2 µM (inactive) |
| c1cn(C23C4C5C6C4C2C6C53)cn1 (stereo not given) | > 100 µM (inactive) | > 100 µM (inactive) | > 100 µM (inactive) | > 100 µM (inactive) | > 100 µM (inactive) | > 100 µM (inactive) | > 100 µM (inactive) | > 100 µM (inactive) | > 100 µM (inactive) | > 100 µM (inactive) | – | > 100 µM (inactive) | > 100 µM (inactive) | > 100 µM (inactive) | > 100 µM (inactive) | > 100 µM (inactive) | > 100 µM (inactive) | – | > 100 µM (inactive) | > 100 µM (inactive) |
| Cc1c(NC(=S)N/N=C\C(=N/NC(=S)Nc2c(C)n(C)n(-c3ccccc3)c2=O)c2ccccc2)c(=O)n(-c2ccccc2)n1C | > 100 µM (inactive) | – | > 100 µM (inactive) | > 100 µM (inactive) | > 100 µM (inactive) | > 100 µM (inactive) | – | > 100 µM (inactive) | > 100 µM (inactive) | > 100 µM (inactive) | > 100 µM (inactive) | > 100 µM (inactive) | > 100 µM (inactive) | > 100 µM (inactive) | – | > 100 µM (inactive) | > 100 µM (inactive) | > 100 µM (inactive) | > 100 µM (inactive) | > 100 µM (inactive) |
| COc1ccc(CC2C(=O)NC(C)C(=O)N(C)C3C(=O)N(C)C(Cc4ccc(O)c(c4)Oc4ccc(cc4)C3O)C(=O)NC(C)C(=O)NC(C)C(=O)N2C)cc1.COc1ccc(CC2C(=O)NC(C)C(=O)N(C)C3Cc4ccc(cc4)Oc4cc(ccc4O)CC(C(=O)NC(C)C(=O)NC(C)C(=O)N2C)N(C)C3=O)cc1 (stereo not given) | 0.00364 µM (active) | 0.01 µM (active) | 0.00718 µM (active) | 0.00771 µM (active) | 0.00114 µM (active) | 0.00552 µM (active) | 0.0128 µM (active) | 0.01 µM (active) | 0.0024 µM (active) | 0.01 µM (active) | 0.136 µM (active) | 0.00321 µM (active) | 0.0282 µM (active) | 0.000638 µM (active) | – | 0.00446 µM (active) | 0.0413 µM (active) | – | 0.0274 µM (active) | 0.0168 µM (active) |
| COc1ccc2c(c1)C(N)=C(c1ccccc1OC)C2=O | > 100 µM (inactive) | 23.5 µM (inactive) | > 100 µM (inactive) | > 100 µM (inactive) | > 100 µM (inactive) | > 100 µM (inactive) | > 100 µM (inactive) | 29.9 µM (inactive) | 76.6 µM (inactive) | 75.7 µM (inactive) | 89.7 µM (inactive) | > 100 µM (inactive) | > 100 µM (inactive) | > 100 µM (inactive) | > 100 µM (inactive) | > 100 µM (inactive) | > 100 µM (inactive) | 25.1 µM (inactive) | > 100 µM (inactive) | – |
| O=c1[nH]nc(Cc2ccc(Cl)cc2)n1/N=C/c1cccs1 | 99.8 µM (inactive) | > 100 µM (inactive) | > 100 µM (inactive) | 26.6 µM (inactive) | 22.4 µM (inactive) | 24.9 µM (inactive) | 27.5 µM (inactive) | > 100 µM (inactive) | > 100 µM (inactive) | > 100 µM (inactive) | 46.2 µM (inactive) | 24.9 µM (inactive) | 29.1 µM (inactive) | 20.4 µM (inactive) | 29.2 µM (inactive) | > 100 µM (inactive) | > 100 µM (inactive) | 15.5 µM (inactive) | 18.9 µM (inactive) | – |
| COc1ccc2nc3cc(Cl)ccc3c(NCCNCCCNC(=O)c3cc(-c4ccccc4)nc4ccccc34)c2c1 | > 100 µM (inactive) | 31.3 µM (inactive) | > 100 µM (inactive) | > 100 µM (inactive) | – | > 100 µM (inactive) | > 100 µM (inactive) | 38.3 µM (inactive) | 70.8 µM (inactive) | > 100 µM (inactive) | > 100 µM (inactive) | > 100 µM (inactive) | > 100 µM (inactive) | > 100 µM (inactive) | > 100 µM (inactive) | > 100 µM (inactive) | > 100 µM (inactive) | > 100 µM (inactive) | > 100 µM (inactive) | 67 µM (inactive) |
| COC(=O)[C@]12C3=C(O)C(=O)C[C@H]1OC[C@H]2C=CC3 | > 100 µM (inactive) | – | 29.2 µM (inactive) | > 100 µM (inactive) | > 100 µM (inactive) | > 100 µM (inactive) | > 100 µM (inactive) | > 100 µM (inactive) | > 100 µM (inactive) | – | > 100 µM (inactive) | > 100 µM (inactive) | > 100 µM (inactive) | > 100 µM (inactive) | > 100 µM (inactive) | > 100 µM (inactive) | > 100 µM (inactive) | > 100 µM (inactive) | > 100 µM (inactive) | > 100 µM (inactive) |
| CC(C(=O)O)c1ccc(-c2ccccc2)c(F)c1 (stereo not given) [FLURBIPROFEN] | > 100 µM (inactive) | > 100 µM (inactive) | > 100 µM (inactive) | > 100 µM (inactive) | > 100 µM (inactive) | – | > 100 µM (inactive) | > 100 µM (inactive) | > 100 µM (inactive) | > 100 µM (inactive) | > 100 µM (inactive) | > 100 µM (inactive) | – | > 100 µM (inactive) | > 100 µM (inactive) | > 100 µM (inactive) | > 100 µM (inactive) | > 100 µM (inactive) | > 100 µM (inactive) | > 100 µM (inactive) |
